Reference: patent US20160030561A1, “Methods of Treating Pancreatic Cancer” (ONCOMED PHARMACEUTICALS, INC., priority 2013, published 2016)
“Also recorded” adds a separate entry of the source. Where a SMILES comes first, the peptide text is derived from it. [ ]: non-standard residue; d: D form. The star is where a group is joined. Nle = CCCC[C@H](N)C(=O)O; Cbz = O=C(OCc1ccccc1)*

Tests used:
[1] = system: medulloblastoma; details: cited from earlier work
[2] = system: T-ALL; details: T-ALL animal model; cited from earlier work
[3] = system: Ras-transformed fibroblasts; details: cited from earlier work
[4] = system: melanoma and Kaposi sarcoma; details: cell lines and/or xenografts in mice from melanoma and Kaposi sarcoma; cited from earlier work
[5] = system: tumor cell lines that overexpressed NOTCH3; details: tumor cell lines that overexpressed NOTCH3, not those with minimal NOTCH3 expression; cited from earlier work
[6] = system: pancreatic tumors with high NOTCH3 gene expression; test: In vivo xenograft assay, panel of pancreatic tumors with high NOTCH3 gene expression; design: species or system NOD-SCID mice; details: treatment with OMP-59R5 and gemcitabine; NOTCH3 cut-off value of 500
Experimental: (§1) 20,000 OMP-PN8 tumor cells were injected into NOD-SCID mice. Tumors were allowed to grow 22 days until they had reached an average volume of 125 mm^3. […] Antibodies were dosed every other week at 40 mg/kg. Gemcitabine was dosed at 20 mg/kg weekly.

[7] = system: OMP-PN8 tumor cells; test: In vivo xenograft assay, OMP-PN8 pancreatic tumor; design: species or system NOD-SCID mice
Experimental: as §1
Tumors were allowed to grow 26 days until they had reached an average volume of 110 mm^3. Tumor bearing mice were randomized into 3 groups (n=9 mice per group) and treated with control antibody, gemcitabine, plus ABRAXANE™ (albumin bound paclitaxel), or the combination of OMP-59R5 anti-NOTCH2/3 antibody and gemcitabine plus ABRAXANE™ OMP-59R5 was dosed every other week at 40 mg/kg. Gemcitabine was dosed at 10 mg/kg weekly and ABRAXANE™ at 30 mg/kg weekly. […] The top and bottom graphs show data obtained from the same experiment on different scales.

[8] = system: OMP-PN11 tumor cells; test: In vivo xenograft assay, OMP-PN11 pancreatic tumor; design: species or system NOD-SCID mice; details: FIG. 1C
Experimental: 50,000 OMP-PN11 tumor cells were injected into NOD-SCID mice. Tumors were allowed to grow 21 days until they had reached an average volume of 120 mm^3. […] Antibodies were dosed every other week at 40 mg/kg. Gemcitabine was dosed at 20 mg/kg weekly.

[9] = system: OMP-PN17 pancreatic tumor; test: In vivo xenograft assay, OMP-PN17 pancreatic tumor; design: species or system NOD-SCID mice; details: FIG. 1B
Experimental: as §1
The ability of anti-NOTCH2/3 OMP-59R5 antibody to inhibit the in vivo growth of OMP-PN17 pancreatic tumor was determined using substantially identical methods.

[10] = system: UM-PE13 breast (NOTCH3 high expressing) tumor cells; test: In vivo xenograft assay, UM-PE13 breast tumor; design: species or system NOD-SCID mice; details: FIG. 1D
Experimental: (§2) Antibodies were dosed weekly at 20 mg/kg. Taxol was dosed at 10 mg/kg weekly.

[11] = system: UM-T1 breast (NOTCH3 high expressing) tumor cells; test: In vivo xenograft assay, UM-T1 breast tumor; design: species or system NOD-SCID mice; details: FIG. 1E
Experimental: Tumors were allowed to grow 28 days until they had reached an average volume of 120 mm^3. […] Antibodies were dosed weekly at 20 mg/kg. Taxol was dosed at 10 mg/kg weekly.

[12] = system: OMP-Lu53 lung (NOTCH3 high expressing) tumor cells; test: In vivo xenograft assay, OMP-Lu53 lung tumor; design: species or system NOD-SCID mice; details: in combination with taxol; antibody 40 mg/kg every other week, taxol 10 mg/kg weekly; FIG. 1G
Experimental: Antibodies were dosed every other week at 40 mg/kg. Taxol was dosed at 10 mg/kg weekly.

[13] = system: OMP-Lu40 lung (NOTCH3 low expressing) tumor cells; test: In vivo xenograft assay, OMP-Lu40 lung tumor; design: species or system NOD-SCID mice; details: in combination with taxol; antibody 20 mg/kg weekly, taxol 10 mg/kg weekly; FIG. 1F
Experimental: as §2

[14] = system: breast or lung tumors with high NOTCH3 gene expression; test: In vivo xenograft assay, panel of breast or lung tumors with high NOTCH3 gene expression; design: species or system NOD-SCID mice; details: OMP-59R5 in combination with a chemotherapeutic agent (taxol); NOTCH3 cut-off value of 500
Experimental: as §2

[15] = system: intestinal adenomas; details: intestinal adenomas in Apc−/− (min) mice; cited from earlier work
[16] = as a single agent, 20 mg/kg weekly
[17] = in combination with taxol, antibody 20 mg/kg weekly, taxol 10 mg/kg weekly

**Q.** For C[C@H](NC(=O)Cc1cc(F)cc(F)c1)C(=O)N[C@H](C(=O)OC(C)(C)C)c1ccccc1 [DAPT, N-[N-(3,5-difluorophenacetyl)-L-alanyl]-S-phenylglycine t-butyl ester], which Medulloblastoma growth [1] is on record?
**A.** Its Medulloblastoma growth is “marked reduction”.

**Q.** What about the “Cell cycle arrest and apoptosis” value [2] of the same molecule?
**A.** Its value is “induced G0-G1 cell cycle arrest and apoptosis”.

**Q.** For CCC(C)C(NC(=O)OCc1ccccc1)C(=O)NC(C=O)CC(C)C (stereo not drawn) [IL-X, cbz-IL-CHO] (Cbz-Ile-Leu-aldehyde; configuration not given here), which Antineoplastic activity [3] is on record?
**A.** The Antineoplastic activity was “NOTCH1-dependent antineoplastic activity”.

**Q.** Which Tumor growth [4] does the source give for CCCC[C@@H](C=O)NC(=O)[C@H](CC(C)C)NC(=O)[C@H](CC(C)C)NC(=O)OCc1ccccc1 [z-Leu-leu-Nle-CHO] (Cbz-Leu-Leu-[Nle]-aldehyde) here?
**A.** Its Tumor growth is “suppress tumor growth”.

**Q.** And the “Cell proliferation and apoptosis” value [5]?
**A.** Its value is “suppression of cell proliferation and induction of apoptosis”.

**Q.** For “OMP-59R5 + gemcitabine: combination treatment with OMP-59R5 anti-NOTCH2/3 antibody and gemcitabine”, which “Pancreatic tumors with high NOTCH3 gene expression responsive in vivo” value [6] is on record?
**A.** Its value is 9 out of the 10.

**Q.** For “OMP-59R5: 59R5 IgG2 anti-NOTCH2/3 antibody, heavy and light chain of SEQ ID NO:30 and SEQ ID NO:33; ATCC PTA-10170”, which OMP-PN8 tumor growth ([7]; as a single agent, 40 mg/kg every other week, FIG. 1A) is on record?
**A.** Its OMP-PN8 tumor growth is “strongly inhibited”.

**Q.** What about the “Activity on OMP-PN8 tumor growth compared with gemcitabine plus ABRAXANE alone” value ([7]; in combination with gemcitabine plus ABRAXANE, FIG. 9) of the same molecule?
**A.** The value was “more active”.

**Q.** What about the OMP-PN8 tumor growth ([7]; in combination with gemcitabine plus ABRAXANE, OMP-59R5 40 mg/kg every other week, gemcitabine 10 mg/kg weekly, ABRAXANE 30 mg/kg weekly, FIG. 9) of the same molecule?
**A.** The OMP-PN8 tumor growth was “strongly inhibited; also recorded: active”.

**Q.** And the OMP-PN8 tumor growth ([7]; in combination with gemcitabine, antibody 40 mg/kg every other week, gemcitabine 20 mg/kg weekly, FIG. 1A)?
**A.** The OMP-PN8 tumor growth was “strongly inhibited”.

**Q.** What about the OMP-PN11 tumor growth ([8]; as a single agent, 40 mg/kg every other week) of the same molecule?
**A.** The OMP-PN11 tumor growth was “no effect”.

**Q.** What about the OMP-PN11 tumor growth ([8]; in combination with gemcitabine, antibody 40 mg/kg every other week, gemcitabine 20 mg/kg weekly) of the same molecule?
**A.** The OMP-PN11 tumor growth was “no effect”.

**Q.** What about the OMP-PN17 tumor growth ([9]; as a single agent) of the same molecule?
**A.** Its OMP-PN17 tumor growth is “strongly inhibited”.

**Q.** What about the OMP-PN17 tumor growth ([9]; in combination with gemcitabine) of the same molecule?
**A.** The OMP-PN17 tumor growth was “strongly inhibited”.

**Q.** What about the UM-PE13 tumor growth [10, 16] of the same molecule?
**A.** The UM-PE13 tumor growth was “strongly inhibited”.

**Q.** And the UM-PE13 tumor growth [10, 17]?
**A.** Its UM-PE13 tumor growth is “strongly inhibited”.

**Q.** What about the UM-T1 tumor growth [11, 16] of the same molecule?
**A.** Its UM-T1 tumor growth is “no effect”.

**Q.** And the UM-T1 tumor growth [11, 17]?
**A.** The UM-T1 tumor growth was “no effect”.

**Q.** What about the OMP-Lu53 tumor growth [12] of the same molecule?
**A.** Its OMP-Lu53 tumor growth is “no effect”.

**Q.** And the OMP-Lu40 tumor growth [13]?
**A.** The OMP-Lu40 tumor growth was “strongly inhibited”.

**Q.** What about the “Breast or lung tumors with high NOTCH3 gene expression responsive” value [14] of the same molecule?
**A.** Its value is 5 out of 14.

**Q.** With dibenzazepine as the molecule, how does the “Epithelial cell proliferation and goblet cell differentiation” value [15] read?
**A.** Its value is “inhibit epithelial cell proliferation and induce goblet cell differentiation”.
